# System: Candida tropicalis
# Test: Anti-fungal activity against Candida tropicalis CGMCC 2.3739 by broth microdilution method
# Format: functional
row,SMILES,MIC [µg/mL]
1,CC(C)OC(=O)[C@H](Cn1cncn1)NC(=O)c1ccc(-c2ccccc2)cc1,2
2,CC(C)OC(=O)[C@H](Cn1ccnc1)NC(=O)c1ccc(-c2cccc(F)c2)cc1,0.0625
3,CCC(C)n1ncn(-c2ccc(N3CCN(c4ccc(OCC5COC(Cn6cncn6)(c6ccc(Cl)cc6Cl)O5)cc4)CC3)cc2)c1=O (stereo not given) [ITRACONAZOLE],0.5
4,CC(C)CNC(=O)[C@H](Cn1ccnc1)NC(=O)c1ccc(-c2ccccc2)cc1,> 16

# Further compounds by falling MIC, results first:
row,MIC [µg/mL],SMILES
1,0.25,COC(=O)[C@H](Cn1ccnc1)NC(=O)c1ccc(-c2ccccc2)cc1
2,0.0625,CCCOC(=O)[C@H](Cn1ccnc1)NC(=O)c1ccc(-c2ccccc2F)cc1
3,0.0625,CC(C)OC(=O)[C@H](Cn1ccnc1)NC(=O)c1ccc(-c2cc(F)ccc2F)cc1

# System: Candida albicans
# Test: Anti-fungal activity against Candida albicans SC5314 by broth microdilution method
# Format: functional
row,SMILES,MIC [µg/mL]
1,CC(C)OC(=O)[C@H](Cn1cncn1)NC(=O)c1ccc(-c2ccccc2)cc1,0.25
2,CC(C)OC(=O)[C@H](Cn1ccnc1)NC(=O)c1ccc(-c2cccc(F)c2)cc1,0.0625
3,CCC(C)n1ncn(-c2ccc(N3CCN(c4ccc(OCC5COC(Cn6cncn6)(c6ccc(Cl)cc6Cl)O5)cc4)CC3)cc2)c1=O (stereo not given) [ITRACONAZOLE],0.0625
4,CC(C)CNC(=O)[C@H](Cn1ccnc1)NC(=O)c1ccc(-c2ccccc2)cc1,> 16

# Continued, values first:
row,MIC [µg/mL],SMILES
1,2,COC(=O)[C@H](Cn1ccnc1)NC(=O)c1ccc(-c2ccccc2)cc1
2,0.125,CCCOC(=O)[C@H](Cn1ccnc1)NC(=O)c1ccc(-c2ccccc2F)cc1
3,0.25,CC(C)OC(=O)[C@H](Cn1ccnc1)NC(=O)c1ccc(-c2cc(F)ccc2F)cc1

# System: Cryptococcus neoformans
# Test: Anti-fungal activity against Cryptococcus neoformans CGMCC 2.3161 by broth microdilution method
# Format: functional
row,SMILES,MIC [µg/mL]
1,CC(C)OC(=O)[C@H](Cn1cncn1)NC(=O)c1ccc(-c2ccccc2)cc1,16
2,CC(C)OC(=O)[C@H](Cn1ccnc1)NC(=O)c1ccc(-c2cccc(F)c2)cc1,16
3,CCC(C)n1ncn(-c2ccc(N3CCN(c4ccc(OCC5COC(Cn6cncn6)(c6ccc(Cl)cc6Cl)O5)cc4)CC3)cc2)c1=O (stereo not given) [ITRACONAZOLE],1
4,CC(C)CNC(=O)[C@H](Cn1ccnc1)NC(=O)c1ccc(-c2ccccc2)cc1,> 16

# Other lines, results leading:
row,MIC [µg/mL],SMILES
1,> 16,COC(=O)[C@H](Cn1ccnc1)NC(=O)c1ccc(-c2ccccc2)cc1
2,0.5,CCCOC(=O)[C@H](Cn1ccnc1)NC(=O)c1ccc(-c2ccccc2F)cc1
3,16,CC(C)OC(=O)[C@H](Cn1ccnc1)NC(=O)c1ccc(-c2cc(F)ccc2F)cc1

# System: Candida albicans
# Test: Anti-fungal activity against Candida albicans CPCC 400523 by broth microdilution method
# Format: functional
row,SMILES,MIC [µg/mL]
1,CC(C)OC(=O)[C@H](Cn1cncn1)NC(=O)c1ccc(-c2ccccc2)cc1,4
2,CC(C)OC(=O)[C@H](Cn1ccnc1)NC(=O)c1ccc(-c2cccc(F)c2)cc1,0.25
3,CCC(C)n1ncn(-c2ccc(N3CCN(c4ccc(OCC5COC(Cn6cncn6)(c6ccc(Cl)cc6Cl)O5)cc4)CC3)cc2)c1=O (stereo not given) [ITRACONAZOLE],0.25
4,CC(C)CNC(=O)[C@H](Cn1ccnc1)NC(=O)c1ccc(-c2ccccc2)cc1,> 16

# Second part, the compound after the results:
row,MIC [µg/mL],SMILES
1,2,COC(=O)[C@H](Cn1ccnc1)NC(=O)c1ccc(-c2ccccc2)cc1
2,0.25,CCCOC(=O)[C@H](Cn1ccnc1)NC(=O)c1ccc(-c2ccccc2F)cc1
3,1,CC(C)OC(=O)[C@H](Cn1ccnc1)NC(=O)c1ccc(-c2cc(F)ccc2F)cc1

# System: Aspergillus fumigatus
# Test: Anti-fungal activity against Aspergillus fumigatus CGMCC 3.7795 by broth microdilution method
# Format: functional
row,SMILES,MIC [µg/mL]
1,CC(C)OC(=O)[C@H](Cn1cncn1)NC(=O)c1ccc(-c2ccccc2)cc1,> 16
2,CC(C)OC(=O)[C@H](Cn1ccnc1)NC(=O)c1ccc(-c2cccc(F)c2)cc1,> 16
3,CCC(C)n1ncn(-c2ccc(N3CCN(c4ccc(OCC5COC(Cn6cncn6)(c6ccc(Cl)cc6Cl)O5)cc4)CC3)cc2)c1=O (stereo not given) [ITRACONAZOLE],4
4,CC(C)CNC(=O)[C@H](Cn1ccnc1)NC(=O)c1ccc(-c2ccccc2)cc1,> 16

# Results, then the compound that gave them:
row,MIC [µg/mL],SMILES
1,> 16,COC(=O)[C@H](Cn1ccnc1)NC(=O)c1ccc(-c2ccccc2)cc1
2,> 16,CCCOC(=O)[C@H](Cn1ccnc1)NC(=O)c1ccc(-c2ccccc2F)cc1
3,> 16,CC(C)OC(=O)[C@H](Cn1ccnc1)NC(=O)c1ccc(-c2cc(F)ccc2F)cc1
